Experiments:
Type in all cases: biochemical
Settings in all cases: Table 8
[1] = tested on: Porcine Atria myofibrils; test: Myofibril ATPase assay (PK/LDH NADH-coupled), atria myofibrils
Description: (§1) Myofibril ATPase Assay Procedure: BSA, ATP, NADH, PEP, and DTT solutions were thawed at room temperature, then transferred to ice. Pellet-frozen myofibrils were transferred with approximately twice the required volume into a sufficiently large tube and capped. Myofibrils were thawed by rolling in a water bath for approximately 15 min at room temperature and cooled on ice. Buffers A and B were prepared by adjusting volumes as necessary for required number of wells and stored on ice. 0.5 μL of the compounds to be assayed were added into wells. 25 μL of Buffer A was dispensed into the wells, followed by 25 μL of Buffer B. The wells were measured for absorbance at 340 nm, using a kinetic protocol in which the wells are read every 1.5-2 min for 75 min. Assay data analysis was performed using a python script that filtered the raw data to retain those points falling between a starting and ending time and between a maximum and minimum absorbance, then used the filtered time-domain 340 nm absorbance data in each well to calculate a slope via linear regression analysis in units of mAU/min. Compound slopes were normalized between 100% and 0% activity, where 100% represented the slope of wells containing only compound vehicle, and fit to a 4-parameter logistic model. In addition to the fit parameters, the EC25% is calculated, relative to the 100% normalized value. In the case of inhibitors, EC50% is also calculated, if available. Fit parameters, calculated effective concentrations, filtered raw data, and calculated slopes were exported, in addition to compound-specific graphs of normalized ATPase activity versus concentration in μM.

[2] = biological target: T1, Porcine Ventricle myofibrils (left ventricle of Yucatan minipigs) (Sus scrofa, UniProt P79293); test: Myofibril ATPase assay (PK/LDH NADH-coupled), ventricle myofibrils
T1 construct: Myofibrils from porcine cardiac muscle was isolated from the left ventricle of Yucatan minipigs; tissue Exemplar Genetics; host or cells: left ventricle of Yucatan minipigs
T1 sequence (P79293 whole entry): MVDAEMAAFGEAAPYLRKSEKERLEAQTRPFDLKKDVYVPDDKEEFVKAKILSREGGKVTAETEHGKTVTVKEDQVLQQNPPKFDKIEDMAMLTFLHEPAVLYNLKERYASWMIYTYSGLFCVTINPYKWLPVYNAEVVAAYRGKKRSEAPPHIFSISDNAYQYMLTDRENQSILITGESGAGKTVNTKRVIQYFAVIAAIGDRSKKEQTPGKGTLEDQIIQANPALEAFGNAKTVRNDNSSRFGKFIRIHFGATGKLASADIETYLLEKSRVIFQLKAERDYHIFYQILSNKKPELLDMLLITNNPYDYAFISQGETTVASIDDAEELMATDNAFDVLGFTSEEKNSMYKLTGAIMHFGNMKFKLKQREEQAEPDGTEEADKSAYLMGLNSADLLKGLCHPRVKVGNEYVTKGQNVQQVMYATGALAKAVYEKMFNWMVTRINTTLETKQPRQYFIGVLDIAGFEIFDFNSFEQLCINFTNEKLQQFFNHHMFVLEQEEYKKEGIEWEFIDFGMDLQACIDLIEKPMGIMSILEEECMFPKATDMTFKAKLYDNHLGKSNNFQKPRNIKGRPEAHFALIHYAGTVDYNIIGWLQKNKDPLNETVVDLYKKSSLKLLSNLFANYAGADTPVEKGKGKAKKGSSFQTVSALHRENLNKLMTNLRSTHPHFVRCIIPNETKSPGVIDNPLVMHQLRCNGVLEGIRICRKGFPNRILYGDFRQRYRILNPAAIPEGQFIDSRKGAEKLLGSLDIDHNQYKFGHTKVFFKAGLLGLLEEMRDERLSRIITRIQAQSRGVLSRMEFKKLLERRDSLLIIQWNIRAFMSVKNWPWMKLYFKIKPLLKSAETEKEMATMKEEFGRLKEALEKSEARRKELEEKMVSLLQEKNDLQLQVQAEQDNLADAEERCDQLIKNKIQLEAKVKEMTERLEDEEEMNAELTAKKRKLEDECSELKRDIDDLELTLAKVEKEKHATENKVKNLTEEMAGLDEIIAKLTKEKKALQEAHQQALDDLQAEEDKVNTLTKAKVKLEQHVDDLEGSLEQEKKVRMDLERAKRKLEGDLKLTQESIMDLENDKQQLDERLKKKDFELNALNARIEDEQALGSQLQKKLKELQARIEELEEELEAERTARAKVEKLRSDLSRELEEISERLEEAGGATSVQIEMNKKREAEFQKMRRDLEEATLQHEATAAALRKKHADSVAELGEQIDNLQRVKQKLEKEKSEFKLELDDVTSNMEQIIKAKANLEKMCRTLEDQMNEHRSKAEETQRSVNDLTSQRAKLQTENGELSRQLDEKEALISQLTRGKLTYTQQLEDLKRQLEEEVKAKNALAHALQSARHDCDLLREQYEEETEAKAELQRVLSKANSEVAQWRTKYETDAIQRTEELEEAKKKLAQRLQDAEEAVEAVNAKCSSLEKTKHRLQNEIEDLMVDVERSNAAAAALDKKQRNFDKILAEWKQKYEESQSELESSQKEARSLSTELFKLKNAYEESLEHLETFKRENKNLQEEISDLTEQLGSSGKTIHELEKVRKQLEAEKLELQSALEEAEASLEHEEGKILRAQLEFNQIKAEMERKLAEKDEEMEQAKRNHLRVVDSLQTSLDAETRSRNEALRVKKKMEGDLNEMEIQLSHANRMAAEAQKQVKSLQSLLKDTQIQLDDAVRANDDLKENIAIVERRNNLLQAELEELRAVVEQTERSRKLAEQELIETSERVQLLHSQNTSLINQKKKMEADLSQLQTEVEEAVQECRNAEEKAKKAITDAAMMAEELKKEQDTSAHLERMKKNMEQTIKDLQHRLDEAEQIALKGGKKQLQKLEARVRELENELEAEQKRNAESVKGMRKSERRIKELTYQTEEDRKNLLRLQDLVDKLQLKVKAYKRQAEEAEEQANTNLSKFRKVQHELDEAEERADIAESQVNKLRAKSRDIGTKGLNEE
Description: (§2) Myofibril ATPase assays are known in the art to be useful in evaluating small molecules for the treatment of HCM and other cardiac indications. Myosin ATPase activity is assessed by using a coupled reaction system, in which ADP generated by the myosin ATPase function is coupled to the disappearance of NADH through the pyruvate kinase/lactate dehydrogenase (PK-LDH) system. ATPase activity produces ADP, which is used as a substrate for PK to produce pyruvate and regenerate ATP. The pyruvate is then used as a substrate by LDH to oxidize NADH to NAD+. The rate of the reaction is monitored through the time-dependent disappearance of NADH using absorbance at 340 nm, which, when the couple system is in stoichiometric excess, is directly correlated to the ATPase activity of the myosin. Inhibition of ATPase activity by the assayed compounds is indicated by a reduced rate of NADH loss, relative to vehicle-treated controls, over the experimental time window. Rabbit Skeletal and Porcine Ventricle are the primary sources of myofibril material.
(§3) Materials: The following stock solutions and reagents were used in the Myofibril ATPase Assay:
(§4) Stock Solutions of pCa buffer. Combine PIPES, CaCl2), and EGTA solutions with water. Adjust pH to 7.0 and bring final volume to 100 mL.
(§5) Buffer A & Buffer B. Prepare buffers A and B according to the table below.
as §1
Cardiac Myofibril Isolation:
Myofibrils from porcine cardiac muscle was isolated from the left ventricle of Yucatan minipigs. Myofibrils were prepared using a method based upon those described in Herrmann et al. (1993) and summarized here. Minced tissue was homogenized for 50 sec with a Polytron homogenizer into 10 volumes (relative to weight in grams) of Isolation Buffer A (75 mM KCl, 10 mM Imidazole, 2 mM MgCl2, 2 mM EGTA, 1 mM NaN3, 1% v/v Triton X-100) supplemented with 4 mM Phosphocreatine, 1 mM ATP, 50 mM BDM, 1 mM DTT, 1 mM Benzamide HCl, 0.1 mM PMSF, 10 μM leupeptin, 5 μM pepstatin, and 10 mM EDTA. The myofibrils were recovered by centrifugation (Beckman Allegra 6R, 1200 g, 15 min) and resuspended in 10 volumes Isolation Buffer B (Buffer A above without supplemental reagents). The myofibrils were further homogenized described above and recovered by centrifugation for 7 mins. Cellular membranes and debris were removed by 3 washes in Isolation Buffer B, centrifuging each as before. […]

[3] = tested on: Rabbit Skeletal myofibrils (rabbit psoas muscle); test: Myofibril ATPase assay (PK/LDH NADH-coupled), skeletal myofibrils
Description: as §2, §3, §4, §5, §1
Skeletal Myofibril Isolation:
Myofibrils from various animals and tissue types were acquired from a variety of sources: rabbit psoas muscle was purchased from Pel-Freez Biologicals (Rogers, AR) and porcine cardiac muscle was purchased from Exemplar Genetics. All myofibrils were prepared using a method based upon those described in Herrmann et al. (1993) and summarized here. Minced tissue was homogenized for 50 sec with a Polytron homogenizer into 10 volumes (relative to weight in grams) of Isolation Buffer A (50 mM Tris, pH 8.0, 0.1 M potassium acetate, 5 mM KCl, 2 mM DTT, 5 mM EDTA, 0.5% v/v Triton X-100) supplemented with 0.1 mM PMSF, 10 μM leupeptin, 5 μM pepstatin, and 0.5 mM sodium azide. The myofibrils were recovered by centrifugation (Beckman Allegra 6R, 1200 g, 10 min) and resuspended in 10 volumes Isolation Buffer B (Buffer A above without protease inhibitors or sodium azide). The myofibrils were further homogenized as before and recovered by centrifugation. […]

Porcine Atria IC25 [1] | Porcine Ventricle IC25 [2] | Rabbit Psoas IC25 [3] | SMILES
20 nM | 45.7 nM | 11.5 nM | C[C@H](NC(=O)CN1Cc2cc(F)c(F)cc2NC1=O)c1ccc(C#N)cc1F [Compound B45, N-[(1S)-1-(4-cyano-2-fluorophenyl)ethyl]-2-(6,7-difluoro-2-oxo-1,4-dihydroquinazolin-3-yl)acetamide]
580 nM | 1847 nM | 660.1 nM | Cc1cnncc1[C@@H](C)NC(=O)CN1Cc2c(ccc(F)c2F)NC1=O [Compound B46]
100000 nM | 62100 nM | 12650 nM | C[C@H](NC(=O)[C@H](CC1CC1)N1Cc2c(ccc(F)c2F)NC1=O)c1ccc(F)cc1F [Compound B48]
6510 nM | 45960 nM | 100000 nM | C[C@@H](NC(=O)[C@@H](CC1CC1)N1Cc2c(ccc(F)c2F)NC1=O)c1ccc(F)cc1F [Compound B49]
100000 nM | 42560 nM | 100000 nM | CC(C)C[C@@H](C(=O)N[C@@H](C)c1ncc(F)cc1F)N1Cc2c(ccc(F)c2F)NC1=O [Compound B50]
49070 nM | 100000 nM | 100000 nM | CC(C)C[C@H](C(=O)N[C@H](C)c1ncc(F)cc1F)N1Cc2c(ccc(F)c2F)NC1=O [Compound B51]
420 nM | 1456 nM | 3964 nM | C[C@@H](NC(=O)CN1Cc2c(ccc(F)c2F)NC1=O)c1cc(C#N)c(F)cn1 [Compound B52]
110 nM | 962.8 nM | 579.6 nM | Cc1nc(C#N)cnc1[C@@H](C)NC(=O)CN1Cc2c(ccc(F)c2F)NC1=O [Compound B54]
1640 nM | 1991 nM | 1887 nM | Cc1cc(F)cc2c1CN(CC(=O)N[C@H](C)c1ccc(C#N)cc1F)C(=O)N2 [Compound B56]
40 nM | 89.9 nM | 13.9 nM | Cc1cc(F)cc2c1CN(CC(=O)N[C@@H](C)c1ccc(C#N)cc1F)C(=O)N2 [Compound B57]
1020 nM | 4230 nM | 6712 nM | Cc1cc(F)cc2c1NC(=O)N(CC(=O)N[C@H](C)c1ccc(C#N)cc1F)C2 [Compound B58]
630 nM | 951.9 nM | 81.8 nM | Cc1cc(F)cc2c1NC(=O)N(CC(=O)N[C@@H](C)c1ccc(C#N)cc1F)C2 [Compound B59, N-[(1S)-1-(4-cyano-2-fluorophenyl)ethyl]-2-(6-fluoro-8-methyl-2-oxo-1,4-dihydroquinazolin-3-yl)acetamide]
800 nM | 100000 nM | 2769 nM | CC(C)C[C@@H](C(=O)N[C@@H](C)c1ccc(F)cc1F)N1Cc2c(ccc(F)c2F)NC1=O [Compound B60]
100000 nM | 100000 nM | 100000 nM | CC(C)C[C@H](C(=O)N[C@H](C)c1ccc(F)cc1F)N1Cc2c(ccc(F)c2F)NC1=O [Compound B61]
40 nM | 41.5 nM | 14.3 nM | O=C(CN1Cc2c(ccc(F)c2F)NC1=O)N[C@@H]1COCc2cc(F)cc(F)c21 [Compound B62]
1810 nM | 100000 nM | 100000 nM | O=C(CN1Cc2c(ccc(F)c2F)NC1=O)N[C@H]1COCc2cc(F)cc(F)c21 [Compound B63]
520 nM | 579.8 nM | 777.3 nM | N#Cc1cnc2c(c1)OC[C@H]2NC(=O)CN1Cc2c(ccc(F)c2F)NC1=O [Compound B64]
100000 nM | 100000 nM | 100000 nM | CC(C)C[C@@H](C(=O)N[C@H](C)c1ccc(F)cc1F)N1Cc2cc(F)ccc2NC1=O [Compound B66]
2030 nM | 1168 nM | 58620 nM | Cc1cc([C@@H](C)NC(=O)CN2Cc3c(ccc(F)c3F)NC2=O)ncc1F [Compound B68]
350 nM | 1114 nM | 1912 nM | Cc1cc(C(C)NC(=O)CN2Cc3c(ccc(F)c3F)NC2=O)ncc1Cl (stereo not drawn) [Compound B70]
43180 nM | 40660 nM | 100000 nM | Cc1noc([C@@H](C)NC(=O)CN2Cc3c(ccc(F)c3F)NC2=O)n1 [Compound B71]
2250 nM | 100000 nM | 1903 nM | Cc1noc([C@H](C)NC(=O)CN2Cc3c(ccc(F)c3F)NC2=O)n1 [Compound B72]
1220 nM | 2134 nM | 23300 nM | C[C@@H](NC(=O)CN1Cc2c(ccc(F)c2F)NC1=O)c1cc2c(cn1)OCCN2C [Compound B73]
20 nM | 14.4 nM | 91.36 nM | O=C(CN1Cc2c(ccc(F)c2F)NC1=O)N[C@@H]1COCc2cc(F)ccc21 [Compound B75]
40 nM | 76.8 nM | 48.8 nM | CC(NC(=O)CN1Cc2c(ccc(F)c2F)NC1=O)c1ncc(C#N)cc1F (stereo not drawn) [Compound B77]
40 nM | 109.1 nM | 41.7 nM | CC(NC(=O)CN1Cc2cc(F)ccc2NC1=O)c1ccc(C#N)cc1F (stereo not drawn) [Compound B78]
40 nM | 445.4 nM | 266.2 nM | COc1cc(C#N)ncc1[C@@H](C)NC(=O)CN1Cc2c(ccc(F)c2F)NC1=O [Compound B79]
60 nM | 2778 nM | 8828 nM | COc1cc(C#N)ncc1[C@H](C)NC(=O)CN1Cc2c(ccc(F)c2F)NC1=O [Compound B80]
90 nM | 409.2 nM | 5776 nM | C[C@@H](NC(=O)CN1Cc2c(ccc(F)c2F)NC1=O)c1ncc(Cl)cc1F [Compound B81]
30 nM | 56.1 nM | 18.3 nM | C[C@H](NC(=O)CN1Cc2c(ccc(F)c2F)NC1=O)c1ncc(Cl)cc1F [Compound B82]

Reference: patent US12509431B2, “1,4-dihydroquinazolinone compounds and uses thereof” (Edgewise Therapeutics, Inc., priority 2022, dated 2025)
